According to US7531545B2, “2-amino-3,4-dihydro-pyrido[3,4-d]pyrimidine derivatives useful as inhibitors of β-secretase (BACE)” (Janssen Pharmaceutica, N.V., priority 2005, dated 2009):
pKi: −log10 of the molar value. Several values for one entry are separate records, joined by “and”; a condition that tells them apart may be missing. Equal values may be shown once.

Molecular target: T1, β-secretase (BACE) (Homo sapiens, UniProt P56817)
T1 construct: purchased Panvera
Experiment: BACE FS1 Assay (% Inhibition and Ki)
Type: biochemical
Details: FS1 substrate; for inhibition at 0.3 µM / % Inhibition (FS) @ 0.3 μM: 0.3 μM test compound; for inhibition at 0.3 µM: read-out: % Inhibition (FS) @ 0.3 μM; for inhibition at 1 µM / % Inhibition (FS) @ 1 μM: 1 μM test compound; for inhibition at 1 µM: read-out: % Inhibition (FS) @ 1 μM; for inhibition at 3 µM / % Inhibition (FS) @ 3 μM: 3 μM test compound; for inhibition at 3 µM: read-out: % Inhibition (FS) @ 3 μM
Procedure: BACE FS1 Assay (% Inhibition and Ki)
The following reagents were used in this assay: sodium acetate, PEG8000 (Sigma), DMSO, HEPES, FS1 substrate [R(AedensE)[…]-(DabcylK)R], β-secretase (BACE) (Panvera), and 96-well plate (HE microplate, Molecular Devices).
The following assay buffers were prepared and used in this assay: (1) enzyme assay buffer (0.05 M sodium acetate, pH5, 0.1% PEG8000 (w/v)), (2) substrate assay buffer (0.05 M sodium acetate, pH5), and (3) compound vehicle (30% DMSO in 50 mM HEPES, pH 7.4).
The FS1-substrate stock solution was prepared in DMSO as a 10 mg/mL solution. The FS1-substrate working solution was prepared by diluting the 10 mg/mL stock solution with substrate assay buffer to a final concentration of 300 μg/mL. The β-secretase (BACE) working solution was prepared by diluting a 0.83 mg/mL BACE stock solution with enzyme assay buffer to a final concentration of 4 μg/mL.
Test compounds were dissolved in DMSO to 10 mM. Compounds were further diluted in vehicle to various concentrations in the range of 405 μM to 4.05 μM (13.5× final compound concentration in screening plate).
The screening procedure for this assay was as follows: 15 μL of BACE working solution was pipetted into each well of a 96-well plate. To each well was then pipetted 2 μL of test compound at the selected concentration. Test compound and BACE were then mixed with a pipettor and incubated for 20 min at room temperature. To each well was then added 10 μL of the FS1 substrate working solution. The plates were then incubated for 1 hour at room temperature. The fluorescence for each well was then measured on an LJL analyst (Ex 360 nm/Em 530 nm).
The procedure for the blank was as follows. 15 μL of assay buffer was pipetted into each well to be used as a blank control. To each well was then added 2 μL of vehicle and […] of FS1-substrate working solution. The plates were then incubated for 1 hour at room temperature. The fluorescence was measured on an LJL analyst (Ex 360 nm/Em 530 nm).
The procedure for the positive control was as follows: 15 μL of BACE working solution was pipetted into each well to be used as a positive control. To each well was then pipetted 2 μL of vehicle. Vehicle and BACE were then mixed with a pipettor and incubated for 20 min at room temperature. To each well was then added 10 μL of the FS1 substrate working solution. The plates were then incubated for 1 hour at room temperature. The fluorescence (F1) was then measured on an LJL analyst (Ex 360 nm/Em 530 nm).
For test compounds, % inhibition was determined at each concentration as follows:
% Inhibition values of less than 30% were indistinguishable from control are listed as ≦30% in Table 18, below.
For test compounds, measured at multiple concentrations, the measured T0 and T60 values were used to calculate an IC50 value using Graphpad Software (or PIR). Ki inhibition was determined as follows: For each compound concentration and positive control, rate of cleavage of substrate (Vi, where i=compound concentration in μM) was determined as Δ Fluorescence/Δ time (min). Cleavage rates (Vi) were plotted as a function of inhibitor concentration in μM [I]. […]

T1 sequence (P56817 46-501): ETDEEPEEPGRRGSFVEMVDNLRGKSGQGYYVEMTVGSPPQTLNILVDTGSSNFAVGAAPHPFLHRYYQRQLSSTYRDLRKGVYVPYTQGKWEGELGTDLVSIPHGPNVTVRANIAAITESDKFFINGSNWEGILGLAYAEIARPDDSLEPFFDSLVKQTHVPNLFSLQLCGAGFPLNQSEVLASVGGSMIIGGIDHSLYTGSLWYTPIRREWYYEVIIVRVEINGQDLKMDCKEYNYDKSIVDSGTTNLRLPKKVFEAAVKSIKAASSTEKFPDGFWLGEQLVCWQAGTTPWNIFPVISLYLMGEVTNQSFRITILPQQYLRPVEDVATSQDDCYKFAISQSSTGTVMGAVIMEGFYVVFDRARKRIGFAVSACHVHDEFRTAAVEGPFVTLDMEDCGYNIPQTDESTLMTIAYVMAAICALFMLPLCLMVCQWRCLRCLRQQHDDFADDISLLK

Row | Structure (SMILES) | inhibition at 0.3 µM [%] | inhibition at 1 µM [%] | inhibition at 3 µM [%] | pKi | % Inhibition (FS) @ 0.3 μM [%] | % Inhibition (FS) @ 1 μM [%] | % Inhibition (FS) @ 3 μM [%]
1 | NC1=Nc2cnc(Oc3ccccc3)cc2CN1CCNC(=O)C1CCCCC1 [Compound 1] | 75 | 102 | 110 | 6.78 |  |  | 
2 | CC(C)(C)OC(=O)NCCN1Cc2cc(Oc3ccccc3)ncc2N=C1N [Compound 2] | 70 | 102 | 124 | 7.04 |  |  | 
3 | COc1ccccc1-c1cc2c(cn1)N=C(N)N([C@@H](CCC(=O)N(C)C1CCCCC1)C1CCCCC1)C2 [Compound 3] | 130 | 132 | 139 | 7.74 |  |  | 
4 | CN(C(=O)CC[C@@H](C1CCCCC1)N1Cc2cc(-c3ccccc3F)ncc2N=C1N)C1CCCCC1 [Compound 4] | 113 | 127 | 132 | 7.46 |  |  | 
5 | CN(C(=O)CC[C@@H](C1CCCCC1)N1Cc2cc(Oc3ccccc3)ncc2N=C1N)C1CCCCC1 [Compound 5] | 125 | 131 | 138 | 7.60 |  |  | 
6 | NC1=Nc2cnc(Oc3ccccc3)cc2CN1CCCC(=O)NC1C2CC3CC(C2)CC1C3 (centres unmarked) [Compound 6] | 122 | 139 | 138 | 7.68 |  |  | 
7 | CC(C)C(CCC(=O)N(C)C1CCC(C(=O)O)CC1)N1Cc2cc(Oc3ccccc3)ncc2N=C1N (centres unmarked) [Compound 8] | 106 | 129 | 138 | 7.57 and 7.80 | 121 | 115 | 130
8 | CC(C)C(CCC(=O)N(CCO)C1CCC(C#N)CC1)N1Cc2cc(Oc3ccccc3)ncc2N=C1N (centres unmarked) [Compound 10] | 55 | 80 | 114 | 6.68 |  |  | 
9 | CC(C)C(CCC(=O)N(C)C1CCC(C#N)CC1)N1Cc2cc(Oc3ccccc3)ncc2N=C1N (centres unmarked) [Compound 11] | 47 | 78 | 120 | 6.91 |  |  | 
10 | CC(C)C(CCC(=O)N(CCO)C1CCC(c2nnn[nH]2)CC1)N1Cc2cc(Oc3ccccc3)ncc2N=C1N (centres unmarked) [Compound 12] | 30 | 63 | 95 | 6.30 |  |  | 
11 | CC(C)[C@H](CCC(=O)N(C)C1CCC(c2nnn[nH]2)CC1)N1Cc2cc(Oc3ccccc3)ncc2N=C1N (stereo partly drawn) [Compound 13, 4-(S)-(2-Amino-6-phenoxy-4H-pyrido[3,4-d]pyrimidin-3-yl)-5-methyl-hexanoic acid methyl-[4-(1H-tetrazol-5-yl)-cyclohexyl]-amide] | 30 | 63 | 87 | 6.29 |  |  | 
12 | CCOC(=O)C1CCC(N(CCO)C(=O)CCC(C(C)C)N2Cc3cc(Oc4ccccc4)ncc3N=C2N)CC1 (centres unmarked) [Compound 14] | 11 | 66 | 108 | 6.62 |  |  | 
13 | CCOC(=O)CCN(C)C(=O)CC[C@@H](C(C)C)N1Cc2cc(Oc3ccccc3)ncc2N=C1N [Compound 15] | 68 | 94 | 110 | 6.89 |  |  | 
14 | CC(C)[C@H](CCC(=O)N(C)CCC(=O)O)N1Cc2cc(Oc3ccccc3)ncc2N=C1N [Compound 16] | 12 | 51 | 80 | 5.96 |  |  | 
15 | CCOC(=O)C1CCC(N(C)C(=O)CCC(C2CCCCC2)N2Cc3cc(Oc4ccccc4)ncc3N=C2N)CC1 (centres unmarked) [Compound 17] | 4 | 61 | 86 | 6.65 |  |  | 
16 | CN(C(=O)CCC(C1CCCCC1)N1Cc2cc(Oc3ccccc3)ncc2N=C1N)C1CCC(C(=O)O)CC1 (centres unmarked) [Compound 18] | 119 | 121 | 128 | 7.77 |  |  | 

Row | Structure (SMILES) | inhibition at 0.3 µM [%] | inhibition at 1 µM [%] | inhibition at 3 µM [%] | pKi | % Inhibition (FS) @ 0.3 μM [%] | % Inhibition (FS) @ 1 μM [%] | % Inhibition (FS) @ 3 μM [%]
17 | CC(C)[C@H](CCC(=O)N(CCCO)C1CCCCC1)N1Cc2cc(Oc3ccccc3)ncc2N=C1N [Compound 19] | 88 | 103 | 104 | 7.26 |  |  | 
18 | CC(C)C(CCC(=O)N(CCO)C1CCC(C(=O)O)CC1)N1Cc2cc(Oc3ccccc3)ncc2N=C1N (centres unmarked) [Compound 20] | 97 | 102 | 104 | 7.89 |  |  | 
19 | CC(C)[C@H](CCC(=O)N(CCO)C(C)C)N1Cc2cc(Oc3ccccc3)ncc2N=C1N [Compound 21] | 51 | 83 | 97 | 7.13 |  |  | 
20 | CN(C(=O)CCC(CCO)N1Cc2cc(Oc3ccccc3)ncc2N=C1N)C1CCCCC1 (centres unmarked) [Compound 22] | 0 | 61 | 93 | 6.76 |  |  | 
21 | COCCC(CCC(=O)N(C)C1CCCCC1)N1Cc2cc(Oc3ccccc3)ncc2N=C1N (centres unmarked) [Compound 23] | 32 | 86 | 103 | 6.82 |  |  | 
22 | CC(C)OCCC(CCC(=O)N(C)C1CCCCC1)N1Cc2cc(Oc3ccccc3)ncc2N=C1N (centres unmarked) [Compound 24] | 40 | 71 | 103 | 6.63 |  |  | 
23 | CN(C(=O)CCC(C1CCOCC1)N1Cc2cc(Oc3ccccc3)ncc2N=C1N)C1CCC(C(=O)O)CC1 (centres unmarked) [Compound 26] | 110 | 124 | 124 | 7.66 |  |  | 
24 | CCOC(=O)C1CCC(N(C)C(=O)CCC(C2CCOCC2)N2Cc3cc(Oc4ccccc4)ncc3N=C2N)CC1 (centres unmarked) [Compound 27] | 16 | 96 | 110 | 6.71 |  |  | 
25 | COC(=O)[C@@H](CO)NC(=O)CC[C@@H](C(C)C)N1Cc2cc(Oc3ccccc3)ncc2N=C1N [Compound 28] | 116 | 124 | 128 | 7.77 |  |  | 
26 | CC(C)[C@H](CO)NC(=O)CC[C@@H](C(C)C)N1Cc2cc(Oc3ccccc3)ncc2N=C1N [Compound 29] |  | 115 | 119 | 7.51 | 93 |  | 
27 | CC(C)[C@H](CCC(=O)N[C@H](CO)C(=O)O)N1Cc2cc(Oc3ccccc3)ncc2N=C1N [Compound 30] | 91 | 106 | 117 | 7.01 |  |  | 
28 | CC(C)[C@H](CCC(=O)N(CCO)C1CCCCC1)N1Cc2cc(Oc3ccccc3)ncc2N=C1N [Compound 31] | 129 | 125 | 125 | 8.10 |  |  | 
29 | COC(=O)[C@H]1CC[C@@H](N(C)C(=O)CC[C@@H](C2CCOCC2)N2Cc3cc(Oc4ccccc4)ncc3N=C2N)CC1 [Compound 32] | 79 | 101 | 109 | 7.70 |  |  | 
30 | CN(C(=O)CC[C@@H](C1CCOCC1)N1Cc2cc(Oc3ccccc3)ncc2N=C1N)[C@H]1CC[C@@H](C(=O)O)CC1 [Compound 33] | 114 | 112 | 113 | 8.30 |  |  | 
31 | COC(=O)[C@H]1CC[C@H](N(C)C(=O)CC[C@@H](C2CCOCC2)N2Cc3cc(Oc4ccccc4)ncc3N=C2N)CC1 [Compound 34] | 96 | 106 | 115 | 7.49 |  |  | 
32 | CC(C)[C@H](CO)NC(=O)CC[C@@H](C(C)C)N1Cc2cc(Oc3ccccc3)ncc2N=C1N [Compound 36] |  |  |  | 7.68 | 114 | 112 | 114
